Test results published in PMC4891385 (Clinical Drug Investigation, 2016).

Columns and labels:
Format in all cases: in vitro ADME
[1] = target: T1, OCT2 (Homo sapiens, UniProt O15244); experiment: [14C]-lesinurad uptake, substrate test, hOCT2 MDCK-II cells
T1 sequence (O15244 1-555): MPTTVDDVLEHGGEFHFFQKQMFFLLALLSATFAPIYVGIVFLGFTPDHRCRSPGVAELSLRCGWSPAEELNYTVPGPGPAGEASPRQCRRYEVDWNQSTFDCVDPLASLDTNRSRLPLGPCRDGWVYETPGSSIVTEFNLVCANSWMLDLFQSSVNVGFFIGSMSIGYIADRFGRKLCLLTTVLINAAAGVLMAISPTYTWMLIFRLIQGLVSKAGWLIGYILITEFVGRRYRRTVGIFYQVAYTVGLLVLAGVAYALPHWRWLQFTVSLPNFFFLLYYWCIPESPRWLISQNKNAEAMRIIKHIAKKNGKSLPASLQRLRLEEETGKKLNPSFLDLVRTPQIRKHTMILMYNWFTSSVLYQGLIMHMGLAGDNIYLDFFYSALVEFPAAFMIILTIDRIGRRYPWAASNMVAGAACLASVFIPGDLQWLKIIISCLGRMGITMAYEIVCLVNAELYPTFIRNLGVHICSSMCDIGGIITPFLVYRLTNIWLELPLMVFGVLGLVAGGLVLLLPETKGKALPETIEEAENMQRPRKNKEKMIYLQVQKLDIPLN

[2] = target: T2, OAT3 (Homo sapiens, UniProt Q8TCC7); experiment: [14C]-lesinurad uptake, substrate test, OAT3 oocytes
T2 sequence (Q8TCC7 1-542): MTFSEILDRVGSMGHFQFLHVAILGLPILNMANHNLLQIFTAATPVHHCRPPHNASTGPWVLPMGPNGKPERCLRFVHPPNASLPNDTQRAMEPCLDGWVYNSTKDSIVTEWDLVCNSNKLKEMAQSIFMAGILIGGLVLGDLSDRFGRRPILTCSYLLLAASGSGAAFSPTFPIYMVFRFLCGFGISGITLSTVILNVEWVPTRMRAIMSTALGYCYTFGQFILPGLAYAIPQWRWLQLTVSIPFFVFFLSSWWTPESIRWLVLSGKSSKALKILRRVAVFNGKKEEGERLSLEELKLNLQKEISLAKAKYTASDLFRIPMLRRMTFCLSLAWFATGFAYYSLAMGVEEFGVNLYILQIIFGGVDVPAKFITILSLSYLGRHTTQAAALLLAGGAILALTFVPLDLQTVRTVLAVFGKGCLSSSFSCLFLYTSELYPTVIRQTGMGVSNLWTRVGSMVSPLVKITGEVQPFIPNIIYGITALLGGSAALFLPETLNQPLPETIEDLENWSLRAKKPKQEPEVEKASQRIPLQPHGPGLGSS

[3] = target: P-gp (Homo sapiens, UniProt P08183); experiment: [14C]-lesinurad substrate test, MDCK-MDR1 cells
P-gp, sequence (P08183 whole entry): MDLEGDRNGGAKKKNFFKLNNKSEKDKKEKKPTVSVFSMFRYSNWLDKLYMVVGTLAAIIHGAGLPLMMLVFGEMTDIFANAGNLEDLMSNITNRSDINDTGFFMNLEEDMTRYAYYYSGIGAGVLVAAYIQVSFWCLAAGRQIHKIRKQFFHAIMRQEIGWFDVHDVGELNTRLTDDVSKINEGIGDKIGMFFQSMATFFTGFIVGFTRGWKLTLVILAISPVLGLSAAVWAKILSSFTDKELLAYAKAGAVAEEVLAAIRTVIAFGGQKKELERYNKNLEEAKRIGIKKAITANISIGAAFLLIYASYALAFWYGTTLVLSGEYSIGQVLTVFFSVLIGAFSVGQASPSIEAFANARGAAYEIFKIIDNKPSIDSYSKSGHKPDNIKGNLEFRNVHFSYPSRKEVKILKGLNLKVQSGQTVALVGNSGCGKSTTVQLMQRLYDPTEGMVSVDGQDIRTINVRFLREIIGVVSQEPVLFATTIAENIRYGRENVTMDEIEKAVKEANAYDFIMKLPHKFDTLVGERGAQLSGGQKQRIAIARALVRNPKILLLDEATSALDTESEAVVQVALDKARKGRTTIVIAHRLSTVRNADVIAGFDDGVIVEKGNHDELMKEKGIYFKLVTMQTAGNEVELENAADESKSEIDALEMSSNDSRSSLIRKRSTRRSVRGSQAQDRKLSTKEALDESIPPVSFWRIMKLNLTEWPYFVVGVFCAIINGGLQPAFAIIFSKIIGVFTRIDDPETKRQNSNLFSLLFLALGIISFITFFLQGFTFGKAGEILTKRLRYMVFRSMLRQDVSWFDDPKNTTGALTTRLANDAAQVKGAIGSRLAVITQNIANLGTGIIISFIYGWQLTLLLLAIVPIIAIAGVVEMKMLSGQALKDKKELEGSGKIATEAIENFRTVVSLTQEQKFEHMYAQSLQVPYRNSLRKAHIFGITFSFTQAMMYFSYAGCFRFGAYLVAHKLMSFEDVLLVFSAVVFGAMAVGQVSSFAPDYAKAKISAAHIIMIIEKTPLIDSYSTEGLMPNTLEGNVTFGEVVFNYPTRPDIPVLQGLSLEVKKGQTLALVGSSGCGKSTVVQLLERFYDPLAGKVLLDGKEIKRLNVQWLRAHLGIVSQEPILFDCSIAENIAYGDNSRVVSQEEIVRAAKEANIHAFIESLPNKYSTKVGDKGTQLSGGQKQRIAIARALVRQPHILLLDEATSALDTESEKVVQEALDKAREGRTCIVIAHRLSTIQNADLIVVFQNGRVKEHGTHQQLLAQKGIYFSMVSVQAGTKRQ

[4] = target: T3, OAT1 (Homo sapiens, UniProt Q4U2R8); experiment: [14C]-lesinurad uptake, substrate test, OAT1 oocytes
T3 sequence (Q4U2R8 1-563): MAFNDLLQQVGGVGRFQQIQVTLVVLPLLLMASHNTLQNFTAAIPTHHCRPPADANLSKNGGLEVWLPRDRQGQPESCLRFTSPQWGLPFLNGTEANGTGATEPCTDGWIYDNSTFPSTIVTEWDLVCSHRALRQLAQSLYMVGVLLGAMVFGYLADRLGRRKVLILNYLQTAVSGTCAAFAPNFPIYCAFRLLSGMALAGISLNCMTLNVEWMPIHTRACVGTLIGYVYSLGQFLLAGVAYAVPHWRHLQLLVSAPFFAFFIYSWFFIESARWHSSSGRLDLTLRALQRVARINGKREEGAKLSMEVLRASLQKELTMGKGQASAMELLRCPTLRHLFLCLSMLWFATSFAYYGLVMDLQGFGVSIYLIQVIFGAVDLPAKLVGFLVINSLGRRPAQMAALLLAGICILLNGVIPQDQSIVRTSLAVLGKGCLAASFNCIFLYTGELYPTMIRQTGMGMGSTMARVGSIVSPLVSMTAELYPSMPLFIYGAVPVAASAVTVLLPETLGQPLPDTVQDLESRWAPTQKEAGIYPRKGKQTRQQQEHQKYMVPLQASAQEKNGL

[5] = target: T4, BCRP (Homo sapiens, UniProt Q9UNQ0); experiment: [14C]-lesinurad substrate test, BCRP in Caco-2 cells
T4 sequence (Q9UNQ0 1-655): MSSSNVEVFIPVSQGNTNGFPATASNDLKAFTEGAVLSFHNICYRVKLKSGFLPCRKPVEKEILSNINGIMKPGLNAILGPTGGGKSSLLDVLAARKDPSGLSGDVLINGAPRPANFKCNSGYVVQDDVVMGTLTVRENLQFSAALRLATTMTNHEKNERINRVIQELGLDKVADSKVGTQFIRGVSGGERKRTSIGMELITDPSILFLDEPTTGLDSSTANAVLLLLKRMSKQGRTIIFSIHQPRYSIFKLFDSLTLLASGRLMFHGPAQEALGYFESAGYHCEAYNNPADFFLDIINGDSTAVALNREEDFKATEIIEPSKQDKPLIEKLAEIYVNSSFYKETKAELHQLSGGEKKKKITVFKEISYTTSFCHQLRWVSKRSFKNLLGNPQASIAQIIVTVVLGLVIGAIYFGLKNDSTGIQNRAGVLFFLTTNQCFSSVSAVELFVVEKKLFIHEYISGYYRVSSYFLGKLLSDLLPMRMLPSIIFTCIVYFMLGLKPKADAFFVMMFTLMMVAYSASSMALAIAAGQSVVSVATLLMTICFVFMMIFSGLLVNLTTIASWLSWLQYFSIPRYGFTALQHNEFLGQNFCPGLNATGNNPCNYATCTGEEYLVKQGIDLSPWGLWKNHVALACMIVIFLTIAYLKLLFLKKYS

[6] = target: T5, OCT1 (Homo sapiens, UniProt O15245); experiment: [14C]-lesinurad uptake, substrate test, hOCT1 MDCK-II cells
T5 sequence (O15245 1-554): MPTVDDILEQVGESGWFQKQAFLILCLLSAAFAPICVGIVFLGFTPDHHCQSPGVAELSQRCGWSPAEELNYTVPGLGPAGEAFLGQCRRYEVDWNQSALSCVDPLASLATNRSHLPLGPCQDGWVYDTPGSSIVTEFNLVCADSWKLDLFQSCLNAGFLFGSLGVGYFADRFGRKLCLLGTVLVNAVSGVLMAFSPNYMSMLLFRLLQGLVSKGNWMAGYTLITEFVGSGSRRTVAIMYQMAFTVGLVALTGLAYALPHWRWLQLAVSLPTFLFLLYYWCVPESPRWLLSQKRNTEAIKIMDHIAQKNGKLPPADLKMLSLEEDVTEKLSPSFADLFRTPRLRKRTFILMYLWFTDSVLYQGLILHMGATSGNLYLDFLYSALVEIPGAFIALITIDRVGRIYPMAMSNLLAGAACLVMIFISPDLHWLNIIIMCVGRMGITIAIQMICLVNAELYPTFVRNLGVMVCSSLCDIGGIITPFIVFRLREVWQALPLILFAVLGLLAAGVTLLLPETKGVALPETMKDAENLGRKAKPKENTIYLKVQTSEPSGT

With O=C(O)CSc1nnc(Br)n1-c1ccc(C2CC2)c2ccccc12 [lesinurad] the Lesinurad as substrate [1] was “not a substrate”, the Lesinurad as substrate [2] was “substrate” and the Lesinurad as substrate [3] was “not a substrate”. For the same molecule, the Lesinurad as substrate [4] was “substrate”, the Lesinurad as substrate [5] was “minor substrate” and the Lesinurad as substrate [6] was “weak substrate”.
